# Reference: the METLIN SMRT retention time set (Domingo-Almenara et al. 2019)
# Test: gradient 5% acetonitrile 3 min, to 50% in 2 min, to 85% in 15 min, held 3 min, 100 µL/min
# Settings: column: Zorbax Extend-C18 2.1 x 50 mm; eluents: water / acetonitrile, 0.1% formic acid
# How it was run: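 Pure standards were run in mixtures of ~100 molecules by HPLC coupled to a quadrupole time-of-flight mass spectrometer. The column was a Zorbax Extend-C18 (2.1 × 50 mm, 1.8 μm) at 100 μL/min, with water and acetonitrile each containing 0.1% formic acid, in positive and negative ionization mode. Dead and dwell volumes were 40 μL and 900 μL. Retention time was taken from computationally picked adduct peaks, each manually inspected, with data collected over 3 months.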
row,SMILES,RP-LC retention time
1,CCCCN(CC)c1nc(-c2ccccc2F)nc2ccccc12,819 s
2,Oc1cccc(-c2nc3cnc(Br)cn3c2Nc2ccc3c(c2)OCO3)c1,786 s
3,CCOc1nc2ccccc2nc1N1CCCC(C(=O)NCc2ccco2)C1 (configuration not stated),1020 s
4,Cc1ccc(C)c(-c2coc(-c3ccc(NC(=O)C(C)C)cc3)n2)c1,1170 s
5,Cc1ccc(NC(=O)CN2C(=O)CCCc3cc(S(=O)(=O)N4CCCC4)ccc32)cc1,855 s
6,CNC(=O)[C@@H]1C[C@H](Oc2ccccc2)CN1C(=O)c1n[nH]c(=O)c2ccccc12,650 s
7,Cc1nn(-c2ccc(Cl)cc2)c(C)c1S(=O)(=O)N1CCC(C(=O)NCC2CCCO2)CC1 (configuration not stated),843 s
8,CCCNC(=O)N1CCCC1c1nc(-c2cccc(C)c2)no1 (configuration not stated),826 s
9,Cc1cc(-c2nnc(-c3ccco3)o2)c(C)n1CC(=O)NCc1cccc(Cl)c1,886 s
10,Nc1nnc(C2CC(=O)N(c3ccccc3)C2)o1 (configuration not stated),570 s
11,CCOC(=O)c1noc2nc(C)nc(Nc3cccc(OC)c3)c12,801 s
12,Cc1ccc(C2=NC3(CCN(C(=O)c4ccc5cc[nH]c5c4)CC3)ON2)cc1,755 s
13,CCOc1ccc(-n2c(=O)c3sccc3n(Cc3nc(-c4ccc(C)cc4)no3)c2=O)cc1,1090 s
14,CSc1ccccc1C(=O)NCC1CN(c2ccccc2)C(=O)O1 (configuration not stated),712 s
15,CCCCC(=O)Nc1nnc(SCc2nnc(-c3ccc4c(c3)OCO4)o2)s1,859 s
16,Cc1ccc(Nc2nc(N)nc(CN3CCC(C(N)=O)CC3)n2)cc1,565 s
17,Cc1ccc(NC(=O)C2CCCN(c3cc(=O)n(C)c(=O)n3C)C2)nc1 (configuration not stated),597 s
18,Cc1ccc(CNC(=O)c2cc3n(n2)CC(C)(C(=O)NCc2ccccc2)N(C)C3=O)cc1 (configuration not stated),766 s
19,CCCN(Cc1cccs1)C(=O)Nc1cc(OC)c(OC)c(OC)c1,875 s
20,Cc1cc(-c2csc(S(=O)(=O)N(Cc3ccco3)C3CCCC3)c2)on1,1110 s
21,Cc1ccc(NC(=O)N(C)CCc2noc(COc3ccccc3)n2)cc1C,947 s
22,COc1cccc(Nc2cc(C(=O)N3CCSCC3)nc3c(OC)cccc23)c1,679 s
23,Cn1cnc(S(=O)(=O)N2[C@H]3CC[C@@H]2c2cnc(-c4ccccc4)nc2C3)c1,763 s

row,SMILES,RP-LC retention time
1,CCc1nc(OCC(=O)Nc2ccc(Br)cc2)c2ccccc2n1,874 s
2,O=C(Cc1cccs1)N1CCC(c2noc(-c3ccncc3)n2)C1 (configuration not stated),702 s
3,CCC(C)C(NC(=O)Cc1cccc(OC)c1)C(=O)Nc1nc2ccccc2[nH]1 (configuration not stated),733 s
4,OC(c1ccc(C(F)(F)F)cc1)c1cccnc1 (configuration not stated),630 s
5,Cc1cccc(NC(=O)N2CCC(n3cnc4c(Cl)cccc4c3=O)CC2)c1,877 s
6,CCNC(=O)C1CCCN(c2nc3ncn(CC(=O)Nc4cccc(F)c4)c(=O)c3s2)C1 (configuration not stated),676 s
7,CC1=C(c2ccc(C)cc2)S(=O)(=O)N=C1N1CCCN(C(=O)NCCC(C)C)CC1,895 s
8,Cc1noc([C@@H]2CN(Cc3ccc(F)cc3Cl)C[C@H]2CO)n1,600 s
9,O=C(NCc1cccnc1)C1CCc2sc(C(=O)N3CCOCC3)cc2C1 (configuration not stated),526 s
10,CN1CCC2(CC1)CN(C(=O)C1CCC1)Cc1ccccc1O2,619 s
11,Cc1cccc(-c2noc(-c3nnn(Cc4nc(-c5cccc(Cl)c5)oc4C)c3C)n2)c1,1000 s
12,CCOC(=O)c1nnc2c(-c3ccccc3)c(C)nn2c1N,828 s
13,O=C(CCc1c(-c2cccc(Cl)c2)nc2ccccn12)N1CCN(c2ccc(F)cc2)CC1,724 s
14,Cc1cc(NC(=O)N2CCC(n3cnnc3C3CC3)C2)ccc1Br (configuration not stated),692 s
15,CN(CCc1ccc(Cl)c(Cl)c1)[C@@H]1CCCC[C@@H]1N1CCCC1,956 s
16,CCCCOCc1cc(CN2CCN(C)CC2)c(O)c2ncccc12,592 s
17,CC(C)Oc1ccc(-c2noc(CN3C(=O)COc4cc(Cl)ccc43)n2)cc1,1190 s
18,CCCSCCCNC(=O)c1cc2n(n1)CCCN(Cc1ccccc1)C2=O,878 s
19,O=C(Cc1csc(NC(=O)c2cnccn2)n1)Nc1cccc(C(F)(F)F)c1,777 s
20,Cc1cccc(NC(=O)c2cn(C)nc2S(=O)(=O)N2CCSCC2)c1,941 s
21,Cc1ccc(-c2noc(Cn3c(=O)n(CCc4ccccc4)c(=O)c4sccc43)n2)cc1,1170 s
22,COc1cccc(-c2noc(NC3CC3)n2)c1OC,752 s
23,Cc1ccccc1Nc1c(-c2ccc3c(c2)OCO3)nc2cnccn12,860 s

row,SMILES,RP-LC retention time
1,O=C([C@@H]1C[C@H](F)CN1C(=O)NCCc1ccccc1)N1CCOCC1,608 s
2,Fc1ccc(CNc2ccc(-c3nc(-c4ccc(F)cc4)no3)cn2)cc1,1220 s
3,Cc1ccc(NS(=O)(=O)c2cc(-c3nc(C)cs3)sc2C)c(C)c1,1090 s
4,COc1ccccc1-n1ccn(Cc2nc(-c3cccc(F)c3)no2)c(=O)c1=O,861 s
5,CCCc1cc(C2CCCN2C(=O)Nc2cc(C)ccc2OC)no1 (configuration not stated),1020 s
6,O=C(Nc1ccc(C(=O)N2CCCCC2)c(N2CCCCCC2)c1)C1CC1,866 s
7,CN(C)C(=O)CSc1ncnc2sccc12,627 s
8,CN1C(=O)c2cc(C(=O)N3CCN(c4ccccc4)CC3)nn2CC1(C)C(=O)NC1CCCCC1 (configuration not stated),803 s
9,CCOc1ccc2nc(NC(=O)CCc3csc(NC(=O)c4ccco4)n3)sc2c1,844 s
10,CCNS(=O)(=O)c1cccnc1Nc1ccc(C)c(Cl)c1,1110 s
11,CCOC(=O)C1CCN(C(=O)Cc2nnc(-c3sccc3C)o2)CC1,774 s
12,Cc1cccc(OCC(=O)NC2(c3nc(C)no3)CCCCC2)c1,951 s
13,O=C(Nc1ccc(Cl)cc1F)c1cccn1Cc1noc(C2CC2)n1,1020 s
14,C[C@@H](NCCc1ccc(O)cc1)[C@@H](O)c1ccc(O)cc1,362 s
15,COC(=O)C(C)NC(=O)N1CCCN(C2=NS(=O)(=O)C(c3ccc(C)cc3)=C2C)CC1 (configuration not stated),736 s
16,Cc1sc2ccn(CC(C)C)c(=O)c2c1C(=O)NC1CCN(Cc2ccccc2)CC1,658 s
17,Cc1ccc(-c2csc(NC(=O)c3ccc4c(c3)OCO4)n2)cc1C,1100 s
18,COc1ccc(CN2CC3(CCN(S(=O)(=O)c4c(C)noc4C)CC3)C2=O)cc1,842 s
19,CC(=O)N1CCc2cc(S(=O)(=O)C(C)CC(=O)N3CCN(c4ccccc4F)CC3)ccc21 (configuration not stated),826 s
20,CC(NC(=O)C(=O)NCC1CCN(C(=O)NC(C)(C)C)CC1)c1ccccc1 (configuration not stated),749 s
21,Cc1ccc2c(C(=O)Nc3ccc(N4CCOCC4)cc3)cc(NC(=O)C3CCC3)cc2n1,630 s
